Measured values from patent US10604514B2, “6-(5-membered heteroaryl)isoquinolin-3-yl carboxamides and preparation and use thereof” (Samumed, LLC, priority 2017, dated 2020).
Read-outs that look alike come from different tables or passages of the source.

Assays:
[1] = test system: Wnt activity (Sp5-Luc reporter in SW480 colon carcinoma cells); test: Wnt activity screening assay (Sp5-Luc reporter gene assay); type: cell-based, human
Outline: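 SW480 cells stably carrying an Sp5 promoter (eight TCF/LEF sites)-firefly luciferase reporter were plated in DMEM with 1% FBS and treated with a 10-point, 1:3 dilution series from 10 μM (0.1% DMSO) for 36 to 48 h at 37° C. Luminescence was normalized to DMSO controls, and EC50 came from four-parameter nonlinear regression.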

[2] = biological target: GSK3β kinase (Homo sapiens (Human), UniProt P49841); test: GSK3β kinase assay (Ser/Thr 09 peptide Z-lyte, FRET); type: biochemical; conditions: method text calls the value IC50;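 further: Coumarin/fluorescein emission ratio converted to percent phosphorylation against unphosphorylated (0%) and phosphorylated (100%) controls, 1 h compound incubation at room temperature, 11-point threefold dilutions from 10 µM, run in duplicate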
Sequence of GSK3β kinase (P49841 whole entry): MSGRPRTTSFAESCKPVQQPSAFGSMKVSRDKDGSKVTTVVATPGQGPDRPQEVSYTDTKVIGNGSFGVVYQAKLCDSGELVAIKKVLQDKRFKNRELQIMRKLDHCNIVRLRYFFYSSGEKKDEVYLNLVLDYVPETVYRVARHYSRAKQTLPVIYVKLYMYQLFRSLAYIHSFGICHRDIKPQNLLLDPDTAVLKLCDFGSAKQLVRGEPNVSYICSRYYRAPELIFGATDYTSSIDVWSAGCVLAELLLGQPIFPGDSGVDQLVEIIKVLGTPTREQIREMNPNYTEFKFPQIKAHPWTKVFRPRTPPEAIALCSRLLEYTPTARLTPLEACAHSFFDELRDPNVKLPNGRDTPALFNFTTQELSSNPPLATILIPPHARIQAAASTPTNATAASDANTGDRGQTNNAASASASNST

[3] = test system: SW480 colon carcinoma cells; test: Cell viability assay (CellTiter-Glo) in SW480 cells; type: cell-based, human;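 further: SW480 cells stably carrying an Sp5-luciferase TCF/LEF reporter, luminescent ATP signal as viability measure, DMSO-treated cells as control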
[4] = test system: IL-6; test: IL-6 inhibition in LPS-stimulated human peripheral blood mononuclear cells (HTRF); type: cell-based; conditions: Homo sapiens, PBMC; for EC50: IL-6, LPS-stimulated huPBMCs, HTRF; for inhibition at 10 µM: read-out: percent value in parentheses below EC50 >10
Outline: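 Fresh human PBMCs (5000 cells/well, 1% FBS RPMI) preincubated with compound (10-point 1:3 series from 10 μM, 0.25% DMSO) 2 h at 37 °C, then stimulated with 50 ng/mL E. coli LPS for 22 h. IL-6 by HTRF 665/620 ratio; DMSO-normalized, EC50 from 4-parameter fit.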

[5] = Homo sapiens; Sp5-Luc reporter, SW480 cells, 36 to 48 hours
[6] = Homo sapiens, 96 h; cell viability, SW480 cells, four days, CellTiter-Glo
[7] = Homo sapiens, SW480, read-out: percent inhibition at 10 μM
[8] = Homo sapiens, SW480; read-out: percent inhibition at 10 μM

Structure (SMILES)	EC50 [1, 5]	EC50 [2]	EC50 [3, 6]	EC50 [4]	inhibition at 10 µM [1, 7]	inhibition at 10 µM [3, 7]	inhibition at 10 µM [4]	inhibition at 10 µM [1, 8]	inhibition at 10 µM [3, 8]
Cc1cn2c(n1)CN(C(=O)Nc1cc3cc(-c4nnc(C)s4)ccc3cn1)CC2 [Compound 58, 2-Methyl-N-(6-(5-methyl-1,3,4-thiadiazol-2-yl)isoquinolin-3-yl)-5,6-dihydroimidazo[1,2-a]pyrazine-7(8H)-carboxamide]	1.46 µM	0.007 µM	0.547 µM	9.57 µM	–	–	–	–	–
CN1CC2CCC(C1)N2C(=O)Nc1cc2cc(-c3cnn(C)c3)ccc2cn1 [Compound 61, 3-Methyl-N-(6-(1-methyl-1H-pyrazol-4-yl)isoquinolin-3-yl)-3,8-diazabicyclo[3.2.1]octane-8-carboxamide]	> 10 µM	9.21 µM	> 10 µM	> 10 µM	22.4%	13.1%	5.2%	–	–
Cc1nnc(-c2ccc3cnc(NC(=O)N4C5CCC4CN(C)C5)cc3c2)s1 [Compound 108, 3-Methyl-N-(6-(5-methyl-1,3,4-thiadiazol-2-yl)isoquinolin-3-yl)-3,8-diazabicyclo[3.2.1]octane-8-carboxamide]	> 10 µM	0.671 µM	> 10 µM	> 10 µM	19.9%	7.8%	4.1%	–	–
Cc1nnc(-c2ccc3cnc(NC(=O)N4[C@@H]5CC[C@H]4C[C@H](NCCC(F)(F)F)C5)cc3c2)s1 [Compound 153, (1R,5S)-N-(6-(5-Methyl-1,3,4-thiadiazol-2-yl)isoquinolin-3-yl)-3-exo-((3,3,3-trifluoropropyl)amino)-8-azabicyclo[3.2.1]octane-8-carboxamide]	> 10 µM	0.532 µM	> 10 µM	> 10 µM	3.4%	0%	9%	–	–
Cc1ncc(-c2ccc3cnc(NC(=O)[C@H]4CC[C@H](NCCF)CC4)cc3c2)o1 [Compound 155, trans-4-((2-fluoroethyl)amino)-N-(6-(2-methyloxazol-5-yl)isoquinolin-3-yl) cyclohexane-1-carboxamide]	2.67 µM	0.668 µM	0.807 µM	1.06 µM	–	–	–	–	–
Cc1nnc(-c2ccc3cnc(NC(=O)N4[C@@H]5CC[C@H]4C[C@@H](NCCC(F)(F)F)C5)cc3c2)s1 [Compound 195, (1R,5S)-cis-N-(6-(5-methyl-1,3,4-thiadiazol-2-yl)isoquinolin-3-yl)-3-((3,3,3-trifluoropropyl)amino)-8-azabicyclo[3.2.1]octane-8-carboxamide]	> 10 µM	1.25 µM	> 10 µM	> 10 µM	13.8%	13%	23.4%	–	–
COCCN[C@H]1CC[C@H](C(=O)Nc2cc3cc(-c4cnn(C)c4)ccc3cn2)CC1 [Compound 196, trans-4-((2-Methoxyethyl)amino)-N-(6-(1-methyl-1H-pyrazol-4-yl)isoquinolin-3-yl)cyclohexane-1-carboxamide]	3.98 µM	0.194 µM	6.11 µM	1.21 µM	–	–	–	–	–
CN1CCC(N(C)C(=O)Nc2cc3cc(-c4cnn(C)c4)cc(F)c3cn2)CC1 [Compound 230, 3-(8-Fluoro-6-(1-methyl-1H-pyrazol-4-yl)isoquinolin-3-yl)-1-methyl-1-(1-methylpiperidin-4-yl)urea]	> 10 µM	3.64 µM	> 10 µM	> 10 µM	–	–	36.6%	0%	31.9%

The next lines start with results.

EC50 [1, 5]	EC50 [2]	EC50 [3, 6]	EC50 [4]	Structure (SMILES)	inhibition at 10 µM [1, 7]	inhibition at 10 µM [3, 7]	inhibition at 10 µM [4]	inhibition at 10 µM [1, 8]	inhibition at 10 µM [3, 8]
0.434 µM	0.022 µM	2.05 µM	6.66 µM	Cc1nnc(-c2ccc3cnc(NC(=O)[C@H]4CC[C@H](N(C)C)CC4)cc3c2)s1 [Compound 22, trans-4-(Dimethylamino)-N-(6-(5-methyl-1,3,4-thiadiazol-2-yl)isoquinolin-3-yl)cyclohexane-1-carboxamide]	–	–	–	–	–
> 10 µM	1.87 µM	3.99 µM	> 10 µM	C[C@@H]1CN(C(=O)Nc2cc3cc(-c4cnn(C)c4)ccc3cn2)CCN1C [Compound 67, (R)-3,4-Dimethyl-N-(6-(1-methyl-1H-pyrazol-4-yl)isoquinolin-3-yl) piperazine-1-carboxamide]	–	–	29.6%	34.3%	–
3.43 µM	0.32 µM	2.96 µM	1.11 µM	COCCN[C@H]1CC[C@H](C(=O)Nc2cc3cc(-c4cnc(C)o4)ccc3cn2)CC1 [Compound 106, trans-4-((2-Methoxyethyl)amino)-N-(6-(2-methyloxazol-5-yl)isoquinolin-3-yl)cyclohexane-1-carboxamide]	–	–	–	–	–
3.65 µM	4.5 µM	> 10 µM	> 10 µM	Cc1nnc(-c2cc(F)c3cnc(NC(=O)N(C)C4CCN(C)CC4)cc3c2)s1 [Compound 227, 3-(8-Fluoro-6-(5-methyl-1,3,4-thiadiazol-2-yl)isoquinolin-3-yl)-1-methyl-1-(1-methylpiperidin-4-yl)urea]	–	–	4.9%	–	1.9%
> 10 µM	0.255 µM	> 10 µM	> 10 µM	CN1CCC(N(C)C(=O)Nc2cc3cc(-c4cn(C)nn4)cc(F)c3cn2)CC1 [Compound 228, 3-(8-Fluoro-6-(1-methyl-1H-1,2,3-triazol-4-yl)isoquinolin-3-yl)-1-methyl-1-(1-methylpiperidin-4-yl)urea]	–	–	3.3%	46.3%	–
3.89 µM	2.83 µM	> 10 µM	8.28 µM	Cc1ncc(-c2ccc3cnc(NC(=O)N(C)C4CCN(C)CC4)cc3c2)o1 [Compound 231, 1-Methyl-3-(6-(2-methyloxazol-5-yl)isoquinolin-3-yl)-1-(1-methylpiperidin-4-yl)urea]	–	–	–	–	41.6%
